Molecular target: Mitogen-activated protein kinase 3 (Homo sapiens, UniProt P27361)
Experiment: DRUGMATRIX: Protein Serine/Threonine Kinase, ERK1 enzyme inhibition (substrate: Myelin Basic Protein)
Parameters: species or system Escherichia coli
Conditions: Not Active = under 50% inhibition at 10 µM

Sequence of Mitogen-activated protein kinase 3 (P27361 whole entry): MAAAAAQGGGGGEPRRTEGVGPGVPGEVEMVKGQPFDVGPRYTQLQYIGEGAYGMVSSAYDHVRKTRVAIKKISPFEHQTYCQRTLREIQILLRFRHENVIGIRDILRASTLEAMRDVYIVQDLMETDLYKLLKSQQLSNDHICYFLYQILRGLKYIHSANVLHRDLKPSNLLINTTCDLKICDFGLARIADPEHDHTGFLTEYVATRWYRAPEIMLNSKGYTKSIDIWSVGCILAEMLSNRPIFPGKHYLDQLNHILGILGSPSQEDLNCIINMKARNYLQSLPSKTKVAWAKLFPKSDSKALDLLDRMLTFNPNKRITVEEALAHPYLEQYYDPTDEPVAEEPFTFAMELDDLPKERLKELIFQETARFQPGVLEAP

Row | SMILES | IC50
1 | CN/C(=N\CCSCc1nc[nH]c1C)NC#N [CIMETIDINE] | Not Active
2 | COc1cc(N)c(Cl)cc1C(=O)NC1CCN(CCCOc2ccc(F)cc2)CC1OC (configuration not stated) [CISAPRIDE] | Not Active
3 | CCC(=O)O[C@]1(C(=O)CCl)[C@@H](C)C[C@H]2[C@@H]3CCC4=CC(=O)C=C[C@]4(C)[C@@]3(F)[C@@H](O)C[C@@]21C [CLOBETASOL PROPIONATE] | Not Active
4 | O=C1CN=C(c2ccccc2Cl)c2cc([N+](=O)[O-])ccc2N1 [CLONAZEPAM] | Not Active
5 | Nc1ccn([C@@H]2O[C@H](CO)[C@@H](O)[C@@H]2O)c(=O)n1 [CYTARABINE] | Not Active
6 | C[C@@H]1C[C@H]2[C@@H]3CCC4=CC(=O)C=C[C@]4(C)[C@@]3(F)[C@@H](O)C[C@]2(C)[C@H]1C(=O)CO [DESOXIMETASONE] | Not Active
7 | CN(C)CC[C@@H](c1ccc(Cl)cc1)c1ccccn1 [DEXCHLORPHENIRAMINE] | Not Active

Molecular target: T1, Cholecystokinin receptor type A (Homo sapiens, UniProt P32238); note: in other assays of this panel Not Active means under 50% inhibition at 10 µM
T1 sequence (P32238 whole entry): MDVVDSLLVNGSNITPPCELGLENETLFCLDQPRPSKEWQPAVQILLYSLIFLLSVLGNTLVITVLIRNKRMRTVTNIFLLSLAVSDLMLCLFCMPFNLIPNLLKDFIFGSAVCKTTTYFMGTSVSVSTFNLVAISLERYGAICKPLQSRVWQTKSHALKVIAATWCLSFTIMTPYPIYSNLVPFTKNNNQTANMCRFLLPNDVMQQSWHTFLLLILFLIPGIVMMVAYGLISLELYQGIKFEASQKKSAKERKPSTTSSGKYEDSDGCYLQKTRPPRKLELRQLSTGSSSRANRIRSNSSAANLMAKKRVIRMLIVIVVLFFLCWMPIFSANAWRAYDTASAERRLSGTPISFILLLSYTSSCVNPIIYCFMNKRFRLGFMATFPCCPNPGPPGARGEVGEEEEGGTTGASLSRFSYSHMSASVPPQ
Type: cell membranes, Membrane
Conditions: 1321-n1

Row | SMILES | IC50
8 | CN/C(=N\CCSCc1nc[nH]c1C)NC#N [CIMETIDINE] | Not Active
9 | COc1cc(N)c(Cl)cc1C(=O)NC1CCN(CCCOc2ccc(F)cc2)CC1OC (configuration not stated) [CISAPRIDE] | Not Active
10 | CCC(=O)O[C@]1(C(=O)CCl)[C@@H](C)C[C@H]2[C@@H]3CCC4=CC(=O)C=C[C@]4(C)[C@@]3(F)[C@@H](O)C[C@@]21C [CLOBETASOL PROPIONATE] | Not Active
11 | O=C1CN=C(c2ccccc2Cl)c2cc([N+](=O)[O-])ccc2N1 [CLONAZEPAM] | Not Active
12 | Nc1ccn([C@@H]2O[C@H](CO)[C@@H](O)[C@@H]2O)c(=O)n1 [CYTARABINE] | Not Active
13 | C[C@@H]1C[C@H]2[C@@H]3CCC4=CC(=O)C=C[C@]4(C)[C@@]3(F)[C@@H](O)C[C@]2(C)[C@H]1C(=O)CO [DESOXIMETASONE] | Not Active
14 | CN(C)CC[C@@H](c1ccc(Cl)cc1)c1ccccn1 [DEXCHLORPHENIRAMINE] | Not Active

Molecular target: Melanocortin receptor 3 (Homo sapiens, UniProt P41968); note: in other assays of this panel Not Active means under 50% inhibition at 10 µM
Type: cell membranes, HEK293, Membrane
Conditions: hek293

Sequence of Melanocortin receptor 3 (P41968 whole entry): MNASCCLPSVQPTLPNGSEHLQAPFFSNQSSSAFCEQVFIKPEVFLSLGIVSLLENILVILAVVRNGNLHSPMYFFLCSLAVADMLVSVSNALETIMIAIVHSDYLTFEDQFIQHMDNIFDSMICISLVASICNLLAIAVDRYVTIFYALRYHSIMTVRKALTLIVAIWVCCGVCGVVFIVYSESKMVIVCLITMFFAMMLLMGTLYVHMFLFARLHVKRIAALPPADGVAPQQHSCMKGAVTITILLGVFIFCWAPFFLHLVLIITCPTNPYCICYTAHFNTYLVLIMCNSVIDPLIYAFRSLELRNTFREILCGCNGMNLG

Row | SMILES | IC50
15 | CN/C(=N\CCSCc1nc[nH]c1C)NC#N [CIMETIDINE] | Not Active
16 | COc1cc(N)c(Cl)cc1C(=O)NC1CCN(CCCOc2ccc(F)cc2)CC1OC (configuration not stated) [CISAPRIDE] | Not Active
17 | CCC(=O)O[C@]1(C(=O)CCl)[C@@H](C)C[C@H]2[C@@H]3CCC4=CC(=O)C=C[C@]4(C)[C@@]3(F)[C@@H](O)C[C@@]21C [CLOBETASOL PROPIONATE] | Not Active
18 | O=C1CN=C(c2ccccc2Cl)c2cc([N+](=O)[O-])ccc2N1 [CLONAZEPAM] | Not Active
19 | Nc1ccn([C@@H]2O[C@H](CO)[C@@H](O)[C@@H]2O)c(=O)n1 [CYTARABINE] | Not Active
20 | C[C@@H]1C[C@H]2[C@@H]3CCC4=CC(=O)C=C[C@]4(C)[C@@]3(F)[C@@H](O)C[C@]2(C)[C@H]1C(=O)CO [DESOXIMETASONE] | Not Active
21 | CN(C)CC[C@@H](c1ccc(Cl)cc1)c1ccccn1 [DEXCHLORPHENIRAMINE] | Not Active

Tested on: not listed separately
Experiment: DRUGMATRIX: Phosphodiesterase PDE4 enzyme inhibition (substrate: [3H]cAMP + cAMP)
Conditions: u-937; Not Active = under 50% inhibition at 10 µM

Row | SMILES | IC50 | Ki
22 | CN/C(=N\CCSCc1nc[nH]c1C)NC#N [CIMETIDINE] | Not Active | Not Active
23 | COc1cc(N)c(Cl)cc1C(=O)NC1CCN(CCCOc2ccc(F)cc2)CC1OC (configuration not stated) [CISAPRIDE] | Not Active | Not Active
24 | CCC(=O)O[C@]1(C(=O)CCl)[C@@H](C)C[C@H]2[C@@H]3CCC4=CC(=O)C=C[C@]4(C)[C@@]3(F)[C@@H](O)C[C@@]21C [CLOBETASOL PROPIONATE] | Not Active | Not Active
25 | O=C1CN=C(c2ccccc2Cl)c2cc([N+](=O)[O-])ccc2N1 [CLONAZEPAM] | Not Active | Not Active
26 | Nc1ccn([C@@H]2O[C@H](CO)[C@@H](O)[C@@H]2O)c(=O)n1 [CYTARABINE] | Not Active | Not Active
27 | C[C@@H]1C[C@H]2[C@@H]3CCC4=CC(=O)C=C[C@]4(C)[C@@]3(F)[C@@H](O)C[C@]2(C)[C@H]1C(=O)CO [DESOXIMETASONE] | Not Active | Not Active
28 | CN(C)CC[C@@H](c1ccc(Cl)cc1)c1ccccn1 [DEXCHLORPHENIRAMINE] | Not Active | Not Active

Molecular target: Cytochrome P450 2C9 (Homo sapiens, UniProt P11712); note: in other assays of this panel Not Active means under 50% inhibition at 10 µM
Conditions: bti-tn-5b1-4

Sequence of Cytochrome P450 2C9 (P11712 whole entry): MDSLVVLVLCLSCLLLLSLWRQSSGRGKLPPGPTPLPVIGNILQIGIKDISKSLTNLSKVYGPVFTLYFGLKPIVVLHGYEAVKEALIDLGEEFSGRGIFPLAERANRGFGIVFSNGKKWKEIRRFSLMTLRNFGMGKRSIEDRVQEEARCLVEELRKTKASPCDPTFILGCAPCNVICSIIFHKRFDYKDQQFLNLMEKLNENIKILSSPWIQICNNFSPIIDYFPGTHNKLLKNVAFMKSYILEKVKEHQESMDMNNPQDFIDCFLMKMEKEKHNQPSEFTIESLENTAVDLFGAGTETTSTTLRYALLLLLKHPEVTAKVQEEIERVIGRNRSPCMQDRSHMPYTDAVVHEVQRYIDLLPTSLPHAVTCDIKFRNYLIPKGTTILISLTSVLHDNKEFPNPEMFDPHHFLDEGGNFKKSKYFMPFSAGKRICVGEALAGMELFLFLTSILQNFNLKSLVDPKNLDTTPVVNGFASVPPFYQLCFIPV

Row | SMILES | IC50 | Ki
29 | CN/C(=N\CCSCc1nc[nH]c1C)NC#N [CIMETIDINE] | Not Active | Not Active
30 | COc1cc(N)c(Cl)cc1C(=O)NC1CCN(CCCOc2ccc(F)cc2)CC1OC (configuration not stated) [CISAPRIDE] | Not Active | Not Active
31 | CCC(=O)O[C@]1(C(=O)CCl)[C@@H](C)C[C@H]2[C@@H]3CCC4=CC(=O)C=C[C@]4(C)[C@@]3(F)[C@@H](O)C[C@@]21C [CLOBETASOL PROPIONATE] | Not Active | Not Active
32 | O=C1CN=C(c2ccccc2Cl)c2cc([N+](=O)[O-])ccc2N1 [CLONAZEPAM] | Not Active | Not Active
33 | Nc1ccn([C@@H]2O[C@H](CO)[C@@H](O)[C@@H]2O)c(=O)n1 [CYTARABINE] | Not Active | Not Active
34 | C[C@@H]1C[C@H]2[C@@H]3CCC4=CC(=O)C=C[C@]4(C)[C@@]3(F)[C@@H](O)C[C@]2(C)[C@H]1C(=O)CO [DESOXIMETASONE] | Not Active | Not Active
35 | CN(C)CC[C@@H](c1ccc(Cl)cc1)c1ccccn1 [DEXCHLORPHENIRAMINE] | Not Active | Not Active

Tested on: not listed separately
Experiment: DRUGMATRIX: ATPase, Na+/K+ enzyme inhibition (substrate: ATP)
Type: tissue-based, Sus scrofa, Heart
Conditions: Not Active = under 50% inhibition at 10 µM

Row | SMILES | IC50 | Ki
36 | CN/C(=N\CCSCc1nc[nH]c1C)NC#N [CIMETIDINE] | Not Active | Not Active
37 | COc1cc(N)c(Cl)cc1C(=O)NC1CCN(CCCOc2ccc(F)cc2)CC1OC (configuration not stated) [CISAPRIDE] | Not Active | Not Active
38 | CCC(=O)O[C@]1(C(=O)CCl)[C@@H](C)C[C@H]2[C@@H]3CCC4=CC(=O)C=C[C@]4(C)[C@@]3(F)[C@@H](O)C[C@@]21C [CLOBETASOL PROPIONATE] | Not Active | Not Active
39 | O=C1CN=C(c2ccccc2Cl)c2cc([N+](=O)[O-])ccc2N1 [CLONAZEPAM] | Not Active | Not Active
40 | Nc1ccn([C@@H]2O[C@H](CO)[C@@H](O)[C@@H]2O)c(=O)n1 [CYTARABINE] | Not Active | Not Active
41 | C[C@@H]1C[C@H]2[C@@H]3CCC4=CC(=O)C=C[C@]4(C)[C@@]3(F)[C@@H](O)C[C@]2(C)[C@H]1C(=O)CO [DESOXIMETASONE] | Not Active | Not Active
42 | CN(C)CC[C@@H](c1ccc(Cl)cc1)c1ccccn1 [DEXCHLORPHENIRAMINE] | Not Active | Not Active

Molecular target: T2, Caspase-1 (Homo sapiens, UniProt P29466);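 note: Caspase-1 enzyme inhibition assay with a peptide substrate; in other assays of this panel Not Active means under 50% inhibition at 10 µM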
T2 sequence (P29466 whole entry): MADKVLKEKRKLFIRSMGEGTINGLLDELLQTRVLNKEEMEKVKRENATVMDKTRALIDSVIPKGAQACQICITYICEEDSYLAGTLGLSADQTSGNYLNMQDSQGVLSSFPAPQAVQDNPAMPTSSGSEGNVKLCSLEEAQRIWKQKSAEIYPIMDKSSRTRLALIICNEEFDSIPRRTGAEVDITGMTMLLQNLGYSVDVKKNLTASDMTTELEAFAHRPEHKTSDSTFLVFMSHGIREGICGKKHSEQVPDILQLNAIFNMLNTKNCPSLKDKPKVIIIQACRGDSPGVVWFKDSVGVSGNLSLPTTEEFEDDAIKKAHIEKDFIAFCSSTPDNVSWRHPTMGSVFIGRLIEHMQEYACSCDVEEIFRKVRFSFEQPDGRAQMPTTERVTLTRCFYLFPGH
Parameters: species or system Escherichia coli
Conditions: not given

Row | SMILES | IC50
43 | CN/C(=N\CCSCc1nc[nH]c1C)NC#N [CIMETIDINE] | Not Active
44 | COc1cc(N)c(Cl)cc1C(=O)NC1CCN(CCCOc2ccc(F)cc2)CC1OC (configuration not stated) [CISAPRIDE] | Not Active
45 | CCC(=O)O[C@]1(C(=O)CCl)[C@@H](C)C[C@H]2[C@@H]3CCC4=CC(=O)C=C[C@]4(C)[C@@]3(F)[C@@H](O)C[C@@]21C [CLOBETASOL PROPIONATE] | Not Active
46 | O=C1CN=C(c2ccccc2Cl)c2cc([N+](=O)[O-])ccc2N1 [CLONAZEPAM] | Not Active
47 | Nc1ccn([C@@H]2O[C@H](CO)[C@@H](O)[C@@H]2O)c(=O)n1 [CYTARABINE] | Not Active
48 | C[C@@H]1C[C@H]2[C@@H]3CCC4=CC(=O)C=C[C@]4(C)[C@@]3(F)[C@@H](O)C[C@]2(C)[C@H]1C(=O)CO [DESOXIMETASONE] | Not Active
49 | CN(C)CC[C@@H](c1ccc(Cl)cc1)c1ccccn1 [DEXCHLORPHENIRAMINE] | Not Active

Molecular target: T3, Amine oxidase [flavin-containing] A (Homo sapiens, UniProt P21397)
T3 sequence (P21397 whole entry): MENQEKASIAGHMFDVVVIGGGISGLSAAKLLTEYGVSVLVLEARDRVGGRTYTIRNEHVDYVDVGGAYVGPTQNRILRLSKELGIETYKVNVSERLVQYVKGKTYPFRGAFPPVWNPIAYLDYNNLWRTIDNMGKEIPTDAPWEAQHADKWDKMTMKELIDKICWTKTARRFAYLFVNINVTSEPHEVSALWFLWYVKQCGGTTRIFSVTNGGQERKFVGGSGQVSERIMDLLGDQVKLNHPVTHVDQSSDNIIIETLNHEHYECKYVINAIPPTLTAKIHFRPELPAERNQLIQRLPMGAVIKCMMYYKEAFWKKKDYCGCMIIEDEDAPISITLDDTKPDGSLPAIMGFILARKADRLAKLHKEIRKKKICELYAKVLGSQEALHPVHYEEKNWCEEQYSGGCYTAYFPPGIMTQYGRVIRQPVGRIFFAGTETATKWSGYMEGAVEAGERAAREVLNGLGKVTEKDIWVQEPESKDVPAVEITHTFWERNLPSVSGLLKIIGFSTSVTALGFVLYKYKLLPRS
Experiment: DRUGMATRIX: Monoamine Oxidase MAO-A enzyme inhibition (substrate: Kynuramine)
Parameters: species or system BTI-TN-5B1-4
Conditions: bti-tn-5b1-4; Not Active = under 50% inhibition at 10 µM

Row | SMILES | IC50
50 | CN/C(=N\CCSCc1nc[nH]c1C)NC#N [CIMETIDINE] | Not Active
51 | COc1cc(N)c(Cl)cc1C(=O)NC1CCN(CCCOc2ccc(F)cc2)CC1OC (configuration not stated) [CISAPRIDE] | Not Active
52 | CCC(=O)O[C@]1(C(=O)CCl)[C@@H](C)C[C@H]2[C@@H]3CCC4=CC(=O)C=C[C@]4(C)[C@@]3(F)[C@@H](O)C[C@@]21C [CLOBETASOL PROPIONATE] | Not Active
53 | O=C1CN=C(c2ccccc2Cl)c2cc([N+](=O)[O-])ccc2N1 [CLONAZEPAM] | Not Active
54 | Nc1ccn([C@@H]2O[C@H](CO)[C@@H](O)[C@@H]2O)c(=O)n1 [CYTARABINE] | Not Active
55 | C[C@@H]1C[C@H]2[C@@H]3CCC4=CC(=O)C=C[C@]4(C)[C@@]3(F)[C@@H](O)C[C@]2(C)[C@H]1C(=O)CO [DESOXIMETASONE] | Not Active
56 | CN(C)CC[C@@H](c1ccc(Cl)cc1)c1ccccn1 [DEXCHLORPHENIRAMINE] | Not Active
